≈ marks a conversion by molar mass, not a printed value.
Key:
S. aureus (ATCC 29213) = assay: Antibacterial susceptibility testing (MIC, broth microdilution or agar dilution), S. aureus; format: cell-based; details: Staphylococcus aureus, ATCC29213; read-out: S. aureus (ATCC 29213) minimal inhibitory concentration (MIC)
Description: (§1) Compounds of the invention were tested for antimicrobial activity by susceptibility testing in liquid or on solid media. MICs for compounds against each strain were determined by the broth microdilution or agar dilution method according to the guidelines of the Clinical Laboratories and Standards Institute, formerly the National Committee for Clinical Laboratory Standards (Clinical Laboratories and Standards Institute. Methods for Dilution Antimicrobial Susceptibility Tests for Bacteria That Grow Aerobically; Approved Standard—Seventh Edition. Document M7-A7. CLSI, Wayne, Pa., 2006; Clinical Laboratories and Standards Institute. The Gram positive bacterial strains tested include S. aureus (Staphylococcus aureus (Isolate ID ATCC 29213)), E. faecalis (Enterococcus faecalis (Isolate ID ATCC 29212)) and S. pyogenes (Streptococcus pyogenes (Isolate ID ATCC 51339)). The Gram negative bacterial strains tested include H. influenzae (Haemophilus influenzae (Isolate ID ATCC 49247)).

S. pyogenes (ATCC 51339) = assay: Antibacterial susceptibility testing (MIC, broth microdilution or agar dilution), S. pyogenes; format: cell-based; details: Streptococcus pyogenes, ATCC51339; read-out: S. pyogenes (ATCC 51339) minimal inhibitory concentration (MIC)
Description: as §1

Structure (SMILES)	MIC (S. aureus (ATCC 29213))	MIC (S. pyogenes (ATCC 51339))
CCNC(=O)Nc1cc(Nc2ccccc2)c(C(=O)Nc2ccc(Oc3ccc(F)cc3)nc2)cn1 [Compound 82]	2 µg/mL (≈ 4.11 µM)	8 µg/mL (≈ 16.4 µM)
CCNC(=O)Nc1cc(Nc2ccccc2)c(C(=O)Nc2cncc(F)c2)cn1 [Compound 85, 6-(3-ethylureido)-N-(5-fluoropyridin-3-yl)-4-(phenylamino)nicotinamide]	≤ 1 µg/mL	≤ 1 µg/mL
CCNC(=O)Nc1cc(Nc2ccccc2)c(C(=O)Nc2cnc3c(c2)ncn3C)cn1 [Compound 88, 6-(3-ethylureido)-N-(3-methyl-3H-imidazo[4,5-b]pyridin-6-yl)-4-(phenylamino)nicotinamide]	2 µg/mL (≈ 4.65 µM)	≤ 1 µg/mL
CCNC(=O)Nc1cc(Nc2ccccc2)c(C(=O)Nc2cc(C)cc(F)c2)cn1 [Compound 93, 6-(3-ethylureido)-N-(3-fluoro-5-methylphenyl)-4-(phenylamino)nicotinamide]	≤ 1 µg/mL	2 µg/mL (≈ 4.91 µM)
CCNC(=O)Nc1cc(Nc2ccccc2)c(C(=O)Nc2ccc(NC(C)C)nc2)cn1 [Compound 95, 6-(3-ethylureido)-N-(6-(isopropylamino)pyridin-3-yl)-4-(phenylamino)nicotinamide]	2 µg/mL (≈ 4.61 µM)	≤ 1 µg/mL
CCNC(=O)Nc1cc(Nc2ccccc2)c(C(=O)Nc2ccc(=O)n(C)c2)cn1 [Compound 99, 6-(3-ethylureido)-N-(1-methyl-6-oxo-1,6-dihydropyridin-3-yl)-4-(phenylamino)nicotinamide]	16 µg/mL (≈ 39.4 µM)	≤ 1 µg/mL
CCNC(=O)Nc1cc(Nc2ccccc2)c(C(=O)Nc2ccc(N3CCC(O)CC3)nc2)cn1 [Compound 100, 6-(3-ethylureido)-N-(6-(4-hydroxypiperidin-1-yl)pyridin-3-yl)-4-(phenylamino)nicotinamide]	2 µg/mL (≈ 4.21 µM)	≤ 1 µg/mL
CCNC(=O)Nc1cc(Nc2ccccc2)c(C(=O)Nc2ccc(C#N)nc2)cn1 [Compound 104, N-(6-cyanopyridin-3-yl)-6-(3-ethylureido)-4-(phenylamino)nicotinamide]	2 µg/mL (≈ 4.98 µM)	≤ 1 µg/mL

Second part, the molecule after the results:

MIC (S. aureus (ATCC 29213))	MIC (S. pyogenes (ATCC 51339))	Structure (SMILES)
≤ 1 µg/mL	≤ 1 µg/mL	CCNC(=O)Nc1cc(Nc2ccccc2)c(C(=O)Nc2ccc(C)nc2)cn1 [Compound 81, 6-(3-ethylureido)-N-(6-methylpyridin-3-yl)-4-(phenylamino)nicotinamide]
≤ 1 µg/mL	≤ 1 µg/mL	CCNC(=O)Nc1cc(Nc2ccccc2)c(C(=O)Nc2cc(C(=O)OC)n(C)c2)cn1 [Compound 86, methyl 4-(6-(3-ethylureido)-4-(phenylamino)nicotinamido)-1-methyl-1H-pyrrole-2-carboxylate]
≤ 1 µg/mL	8 µg/mL (≈ 18.4 µM)	CCNC(=O)Nc1cc(Nc2ccccc2)c(C(=O)Nc2cncc(C(=O)OC)c2)cn1 [Compound 89, methyl 5-(6-(3-ethylureido)-4-(phenylamino)nicotinamido)nicotinate]
≤ 1 µg/mL	≤ 1 µg/mL	CCNC(=O)Nc1cc(Nc2ccccc2)c(C(=O)Nc2cncc(C)c2)cn1 [Compound 91, 6-(3-ethylureido)-N-(5-methylpyridin-3-yl)-4-(phenylamino)nicotinamide]
≤ 1 µg/mL	≤ 1 µg/mL	CCNC(=O)Nc1cc(Nc2ccc(C(=O)OC)cc2)c(C(=O)Nc2cccnc2)cn1 [Compound 96, methyl 4-(2-(3-ethylureido)-5-(pyridin-3-ylcarbamoyl)pyridin-4-ylamino)benzoate]
2 µg/mL (≈ 4.6 µM)	32 µg/mL (≈ 73.7 µM)	CCNC(=O)Nc1cc(Nc2cccc(C(=O)OC)c2)c(C(=O)Nc2cccnc2)cn1 [Compound 97, methyl 3-(2-(3-ethylureido)-5-(pyridin-3-ylcarbamoyl)pyridin-4-ylamino)benzoate]
≤ 1 µg/mL	≤ 1 µg/mL	CCNC(=O)Nc1cc(Nc2ccccc2)c(C(=O)Nc2ccc(N(C)C)nc2)cn1 [Compound 98, N-(6-(dimethylamino)pyridin-3-yl)-6-(3-ethylureido)-4-(phenylamino)nicotinamide]

From patent US9060515B2, “Heterocyclic urea compounds” (BIOTA EUROPE LTD, priority 2011, dated 2015)
